Measured values published in US20240262833A1, “FUSED HETEROCYCLIC DERIVATIVES AS NEGATIVE ALLOSTERIC MODULATORS OF MGLU7 RECEPTOR” (Addex Pharma S.A., priority 2021, published 2024).
pIC50: −log10 of the molar value.

Columns and labels:
[1] = biological target: T1, human metabotropic glutamate 7 receptor (hmGlu7) (Homo sapiens, UniProt Q14831); assay: mGlu7 assay on HEK-expressing human mGlu7: fluorescent cell based Ca2+ mobilization assay (FLIPR), inhibition of EC80 L-AP4 response; conditions: HEK-293 cells expressing hmGlu7; EC80 L-AP4 stimulation; mean of at least three independent experiments in duplicate; read-out: Ca2+ Flux (mean IC50)
T1 construct: expressed in transfected cells
How it was run: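 HEK293 cells stably expressing hmGlu7 with a calcium-redirecting G protein were Fluo4-AM-loaded and assayed at pH 7.4 in HEPES buffer. Compounds were monitored for 180 s for agonism, then cells were challenged with EC80 L-AP4 for 110 s. IC50 was obtained from four-parameter fits, as the mean of ≥3 experiments run in duplicate.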

T1 sequence (Q14831 35-922 isoform Q14831-2): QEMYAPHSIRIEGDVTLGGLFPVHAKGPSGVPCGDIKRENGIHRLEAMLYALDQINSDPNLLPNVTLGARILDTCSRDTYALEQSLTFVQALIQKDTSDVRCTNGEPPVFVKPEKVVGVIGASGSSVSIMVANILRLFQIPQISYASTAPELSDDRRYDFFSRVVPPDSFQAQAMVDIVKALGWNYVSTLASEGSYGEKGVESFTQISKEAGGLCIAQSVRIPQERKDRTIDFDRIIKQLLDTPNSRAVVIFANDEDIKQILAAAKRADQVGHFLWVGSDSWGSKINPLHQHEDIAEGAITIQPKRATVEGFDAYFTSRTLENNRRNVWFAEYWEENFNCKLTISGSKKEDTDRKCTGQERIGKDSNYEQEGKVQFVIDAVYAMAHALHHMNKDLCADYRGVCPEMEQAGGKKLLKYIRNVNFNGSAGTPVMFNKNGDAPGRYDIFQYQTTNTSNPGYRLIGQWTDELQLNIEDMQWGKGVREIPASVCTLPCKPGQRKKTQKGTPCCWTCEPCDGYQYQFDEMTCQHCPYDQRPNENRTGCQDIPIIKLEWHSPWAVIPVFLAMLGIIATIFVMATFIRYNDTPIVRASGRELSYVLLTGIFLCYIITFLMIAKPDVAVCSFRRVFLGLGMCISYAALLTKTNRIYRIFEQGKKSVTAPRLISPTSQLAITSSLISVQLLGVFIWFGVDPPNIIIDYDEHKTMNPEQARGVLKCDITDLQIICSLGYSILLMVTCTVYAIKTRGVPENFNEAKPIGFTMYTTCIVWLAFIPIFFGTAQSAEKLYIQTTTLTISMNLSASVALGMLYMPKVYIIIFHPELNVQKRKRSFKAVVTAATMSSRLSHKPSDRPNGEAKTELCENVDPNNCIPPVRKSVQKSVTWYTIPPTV

| Compound | pIC50 [1] | melting point [°C] |
| --- | --- | --- |
| COc1cccc(-n2c(C)c3cnn(-c4ccc(O)nc4)c(=O)c3c2C)c1 [1-131, 2-(6-Hydroxypyridin-3-yl)-6-(3-methoxyphenyl)-5,7-dimethyl-2,6-dihydro-1H-pyrrolo[3,4-d]pyridazin-1-one] | 6.00 to 7.00 | 207 to 209 |
| O=c1c2cn(-c3cccc(N4CCC4)c3)cc2cnn1-c1ccccn1 [1-188, 6-(3-(Azetidin-1-yl)phenyl)-2-(pyridin-2-yl)-2,6-dihydro-1H-pyrrolo[3,4-d]pyridazin-1-one] | 5.00 to 6.00 | 190 to 192 |
| CC(=O)c1cccc(-n2c(C)c3cnn(-c4ccccc4)c(=O)c3c2C)c1 [1-36, 6-(3-Acetylphenyl)-5,7-dimethyl-2-phenyl-2,6-dihydro-1H-pyrrolo [3,4-d]pyridazin-1-one] | 6.00 to 7.00 | 202 to 204 |
| COc1cccc(-n2c(C)c3cnn(-c4ccc(CN)cc4)c(=O)c3c2C)c1 [1-88, 2-(4-(Aminomethyl)phenyl)-6-(3-methoxyphenyl)-5,7-dimethyl-2,6-dihydro-1H-pyrrolo[3,4-d]pyridazin-1-one] | 6.00 to 7.00 | 145 to 155 |
| COc1cccc(-n2c(C)c3cnn(-c4cc(OC)ccn4)c(=O)c3c2C)c1 [1-123] | 5.00 to 6.00 | 95 to 97 |
| CNCc1ccc(-n2ncc3c(C)n(-c4cccc(OC)c4)c(C)c3c2=O)cc1 [1-109, 6-(3-Methoxyphenyl)-5,7-dimethyl-2-(4-((methylamino)methyl)phenyl)-2,6-dihydro-1H-pyrrolo[3,4-d]pyridazin-1-one] | 6.00 to 7.00 | 150 to 154 |
| CCOC(=O)c1cccc(-n2c(C)c3cnn(-c4ccccn4)c(=O)c3c2C)c1 [1-133] | 6.00 to 7.00 | 86 to 90 |
| COc1cccc(-n2c(C)c3cnn(-c4ccccc4)c(=O)c3c2C)c1 [1-26, 6-(3-Methoxyphenyl)-5,7-dimethyl-2-phenyl-2,6-dihydro-1H-pyrrolo[3,4-d]pyridazin-1-one] | > 7.00 | 213 to 215 |
| Cc1c2cnn(-c3ccccc3F)c(=O)c2c(C)n1-c1ccccc1 [1-21, 2-(2-Fluorophenyl)-5,7-dimethyl-6-phenyl-2,6-dihydro-1H-pyrrolo [3,4-d]pyridazin-1-one] | 6.00 to 7.00 | 226 |
| Cc1c2cnn(-c3ccccn3)c(=O)c2c(C)n1-c1cccc(-c2ccccc2)c1 [1-76, 6-([1,1′-Biphenyl]-3-yl)-5,7-dimethyl-2-(pyridin-2-yl)-2,6-dihydro-1H-pyrrolo[3,4-d]pyridazin-1-one] | 6.00 to 7.00 | 106 to 109 |
| CCN(CC)c1cccc(-n2c(C)c3cnn(-c4ccccn4)c(=O)c3c2C)c1 [1-100, 6-(3-(Diethylamino)phenyl)-5,7-dimethyl-2-(pyridin-2-yl)-2,6-dihydro-1H-pyrrolo[3,4-d]pyridazin-1-one] | 6.00 to 7.00 | < 85 |
| COc1cccc(-n2c(C)c3cnn(-c4ccc(C(C)O)cc4)c(=O)c3c2C)c1 (centres unmarked) [1-138, 2-(4-(1-Hydroxyethyl)phenyl)-6-(3-methoxyphenyl)-5,7-dimethyl-2,6-dihydro-1H-pyrrolo[3,4-d]pyridazin-1-one] | > 7.00 | 192 to 195 |
| COc1cccc(-n2c(C)c3cnn(-c4ccc(C#N)cc4)c(=O)c3c2C)c1 [1-126] | 6.00 to 7.00 | 97 to 99 |
| Cc1c2cnn(-c3ncccn3)c(=O)c2c(C)n1-c1cccc(OC2CC2)c1Cl [1-215, 6-(2-Chloro-3-cyclopropoxyphenyl)-5,7-dimethyl-2-(pyrimidin-2-yl)-2,6-dihydro-1H-pyrrolo[3,4-d]pyridazin-1-one] | > 7.00 | 228 |
| COc1cccc(-n2c(C)c3cnn(-c4ccc(C(C)(C)O)cc4)c(=O)c3c2C)c1 [1-135, 2-(4-(2-Hydroxypropan-2-yl)phenyl)-6-(3-methoxyphenyl)-5,7-dimethyl-2,6-dihydro-1H-pyrrolo[3,4-d]pyridazin-1-one] | > 7.00 | 103 to 108 |
| Cc1c2cnn(-c3ccccc3)c(=O)c2c(C)n1-c1cccc(O)c1 [1-51, 6-(3-Hydroxyphenyl)-5,7-dimethyl-2-phenyl-2,6-dihydro-1H-pyrrolo[3,4-d]pyridazin-1-one] | 5.00 to 6.00 | 252 to 254 |
| Cc1c2cnn(-c3ccccc3)c(=O)c2c(C)n1-c1cccc(N2CCCC2)c1 [1-101, 5,7-Dimethyl-2-phenyl-6-(3-(pyrrolidin-1-yl)phenyl)-2,6-dihydro-1H-pyrrolo[3,4-d]pyridazin-1-one] | 6.00 to 7.00 | 228 to 229 |
| COCCNc1cccc(-n2c(C)c3cnn(-c4ccccc4)c(=O)c3c2C)c1 [1-43, 6-(3-(2-Methoxyethylamino)phenyl)-5,7-dimethyl-2-phenyl-2,6-dihydro-1H-pyrrolo[3,4-d]pyridazin-1-one] | 6.00 to 7.00 | 116 to 119 |
| Cc1ccnc(-n2ncc3c(C)n(-c4cccc(N5CCC5)c4)c(C)c3c2=O)c1 [1-161] | > 7.00 |  |
| Cc1cccc(-n2ncc3c(C)n(-c4cccc(N5CCC5)c4)c(C)c3c2=O)n1 [1-154] | 6.00 to 7.00 |  |
| Cc1c2cnn(-c3ccccn3)c(=O)c2c(C)n1-c1cccc(N(C)C)c1 [1-110] | 6.00 to 7.00 |  |
| COc1ccccc1-n1ncc2c(C)n(-c3ccc(C)cc3)c(C)c2c1=O [1-2, 2-(2-Methoxyphenyl)-5,7-dimethyl-6-p-tolyl-2,6-dihydro-1H-pyrrolo[3,4-d]pyridazin-1-one] | 6.00 to 7.00 | 202 |
| Cc1c2cnn(-c3ccccc3)c(=O)c2c(C)n1-c1ccccc1 [1-4] | 6.00 to 7.00 |  |
| Cc1c2cnn(-c3ccccn3)c(=O)c2c(C)n1-c1cccc(-n2nccn2)c1 [1-199, 6-(3-(2H-1,2,3-Triazol-2-yl)phenyl)-5,7-dimethyl-2-(pyridin-2-yl)-2,6-dihydro-1H-pyrrolo[3,4-d]pyridazin-1-one] | 6.00 to 7.00 | 173 |
| COc1cccc(-n2c(C)c3cnn(-c4cccc(OC)c4)c(=O)c3c2C)c1 [1-130] | > 7.00 |  |
| Cc1c2cnn(-c3ccccn3)c(=O)c2c(C)n1-c1cccc(C#N)c1 [1-54] | 5.00 to 6.00 |  |
| CC(=O)c1ccc(-n2ncc3c(C)n(-c4ccccc4)c(C)c3c2=O)cc1 [1-27] | 6.00 to 7.00 |  |
